Results reported in patent US20080009418A1, “Selective Inhibitors” (Alchemia LTD., priority 2004, published 2008).

What was measured:
[1] = biological target: T1, Human κ-Opioid (KOP) (Homo sapiens, UniProt P41145); assay: Radioligand binding, human κ-opioid (KOP) membranes, filtration, [3H]-Diprenorphine; conditions: compound at 10 μM, [3H]-Diprenorphine
T1 construct: purchased Perkin Elmer Biosignal
Outline: (§1)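 Filtration binding on cloned human receptor membranes (1 Unit/well), [125I]-Substance P for NK1 and [3H]-Diprenorphine for KOP, 1 h at room temperature. Filters PEI-presoaked, washed with cold 50 mM Tris-HCl pH 7.4, counted by scintillation; percent inhibition calculated, reference ligand defining non-specific binding.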

[2] = biological target: T2, Human Melanocortin (MC3) (Homo sapiens, UniProt P41968); assay: Radioligand binding, human melanocortin MC3 membranes, FlashPlate, [125I]-NDP-αMSH; conditions: compound at 10 μM, [125I]-NDP-αMSH
T2 construct: purchased Perkin Elmer Biosignal
T2 sequence (P41968 whole entry): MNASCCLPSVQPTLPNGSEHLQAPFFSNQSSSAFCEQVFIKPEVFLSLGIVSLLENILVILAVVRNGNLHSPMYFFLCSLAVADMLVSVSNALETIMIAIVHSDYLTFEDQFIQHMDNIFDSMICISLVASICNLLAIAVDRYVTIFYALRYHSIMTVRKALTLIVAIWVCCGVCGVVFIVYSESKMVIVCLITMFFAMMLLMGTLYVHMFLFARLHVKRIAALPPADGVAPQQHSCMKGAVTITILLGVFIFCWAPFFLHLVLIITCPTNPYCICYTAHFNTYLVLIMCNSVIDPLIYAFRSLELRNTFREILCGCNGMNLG
Outline: (§2)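 Cloned human receptor membranes were coated onto FlashPlate wells and incubated with radioligand and compound (added from a 0.5 mM DMSO daughter plate) for 1 hour at room temperature in the dark. Scintillation counting gave percent inhibition, with DMSO defining total and reference ligand defining non-specific binding.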

[3] = biological target: T3, Human Melanocortin (MC4) (Homo sapiens, UniProt P32245); assay: Radioligand binding, human melanocortin MC4 membranes, FlashPlate, [125I]-NDP-αMSH; conditions: compound at 10 μM, [125I]-NDP-αMSH
T3 construct: purchased Perkin Elmer Biosignal
T3 sequence (P32245 whole entry): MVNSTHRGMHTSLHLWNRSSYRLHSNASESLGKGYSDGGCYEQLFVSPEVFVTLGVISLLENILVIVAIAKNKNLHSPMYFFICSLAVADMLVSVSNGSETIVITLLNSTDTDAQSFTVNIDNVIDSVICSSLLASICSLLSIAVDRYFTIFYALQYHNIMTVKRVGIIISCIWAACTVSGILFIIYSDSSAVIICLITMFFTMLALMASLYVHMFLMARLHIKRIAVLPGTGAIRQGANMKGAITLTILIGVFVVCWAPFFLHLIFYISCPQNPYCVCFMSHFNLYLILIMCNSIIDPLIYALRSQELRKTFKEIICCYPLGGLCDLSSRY
Outline: as §2

[4] = biological target: T4, Human neurokinin (NK1) (Homo sapiens, UniProt P25103); assay: Radioligand binding, human neurokinin NK1 membranes, filtration, [125I]-Substance P; conditions: compound at 10 μM, [125I]-Substance P
T4 construct: purchased Perkin Elmer Biosignal
T4 sequence (P25103 whole entry): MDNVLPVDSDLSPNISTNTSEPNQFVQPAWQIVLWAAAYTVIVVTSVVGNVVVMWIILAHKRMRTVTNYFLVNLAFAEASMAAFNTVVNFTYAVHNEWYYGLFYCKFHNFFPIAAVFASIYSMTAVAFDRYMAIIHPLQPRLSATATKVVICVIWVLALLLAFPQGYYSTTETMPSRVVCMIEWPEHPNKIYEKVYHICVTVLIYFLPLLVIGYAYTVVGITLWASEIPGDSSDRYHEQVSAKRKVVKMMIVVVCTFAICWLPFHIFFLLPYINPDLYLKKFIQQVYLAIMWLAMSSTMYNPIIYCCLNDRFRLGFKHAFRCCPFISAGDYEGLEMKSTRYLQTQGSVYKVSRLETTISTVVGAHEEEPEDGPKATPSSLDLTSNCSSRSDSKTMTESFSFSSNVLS
Outline: as §1

[5] = biological target: T5, Human opioid (ORL1) (Homo sapiens, UniProt P41146); assay: Radioligand binding, human opioid ORL1 membranes, FlashPlate, [125I]-Nociceptin; conditions: compound at 10 μM, [125I]-Nociceptin
T5 construct: purchased Perkin Elmer Biosignal
T5 sequence (P41146 whole entry): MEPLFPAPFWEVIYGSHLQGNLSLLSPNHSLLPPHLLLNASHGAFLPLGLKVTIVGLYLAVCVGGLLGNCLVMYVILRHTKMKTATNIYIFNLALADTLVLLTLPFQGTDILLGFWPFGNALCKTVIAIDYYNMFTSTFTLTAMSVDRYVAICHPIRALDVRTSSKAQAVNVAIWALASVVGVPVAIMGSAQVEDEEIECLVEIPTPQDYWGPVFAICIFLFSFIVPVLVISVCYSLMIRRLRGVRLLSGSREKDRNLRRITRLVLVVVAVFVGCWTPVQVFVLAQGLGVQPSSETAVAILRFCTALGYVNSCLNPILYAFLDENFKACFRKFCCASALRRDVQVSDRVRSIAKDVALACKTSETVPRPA
Outline: as §2

[6] = biological target: T6, Mouse urotensin (mUR2) (Mus musculus, UniProt Q8VIH9); assay: Radioligand binding, mouse urotensin mUR2 membranes, FlashPlate, [125I]-Urotensin II; conditions: compound at 10 μM, [125I]-Urotensin II
T6 construct: purchased Perkin Elmer Biosignal
T6 sequence (Q8VIH9 1-385): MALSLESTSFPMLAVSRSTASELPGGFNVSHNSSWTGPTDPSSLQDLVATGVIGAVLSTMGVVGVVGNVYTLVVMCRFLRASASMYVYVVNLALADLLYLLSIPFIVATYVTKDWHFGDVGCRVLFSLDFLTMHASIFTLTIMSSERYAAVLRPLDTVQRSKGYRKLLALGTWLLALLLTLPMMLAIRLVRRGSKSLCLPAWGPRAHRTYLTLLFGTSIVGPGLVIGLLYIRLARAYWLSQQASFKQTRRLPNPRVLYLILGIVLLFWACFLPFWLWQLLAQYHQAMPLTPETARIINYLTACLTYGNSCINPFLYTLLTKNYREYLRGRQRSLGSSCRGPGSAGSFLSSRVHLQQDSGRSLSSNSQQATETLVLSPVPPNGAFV
Outline: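 Cloned mouse urotensin (mUR2) receptor membranes from Perkin Elmer Biosignal were immobilized in FlashPlate microplates using a proprietary coating. Each well got 19.5 μl buffer, then 0.5 μl of DMSO, reference ligand, or compound. Adding 5 μl of [125I]-Urotensin II, diluted to 5× final concentration in binding buffer, started binding. Plates were sealed with TopSeal-A and incubated 1 hour at room temperature in the dark. Wells were counted for 30 seconds each on a TopCount after a 60-second delay, and percentage inhibition was calculated.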

[7] = biological target: T7, Human melanin-concentrating hormone (MCH1) (Homo sapiens, UniProt Q99705); assay: Radioligand binding, human melanin-concentrating hormone MCH1 membranes, FlashPlate, [125I]-S36057; conditions: compound at 10 μM; for A6: inhibition of radioligand binding, human melanin-concentrating hormone (MCH1): [125I]-S36057
T7 construct: purchased Perkin Elmer Biosignal
T7 sequence (Q99705 whole entry): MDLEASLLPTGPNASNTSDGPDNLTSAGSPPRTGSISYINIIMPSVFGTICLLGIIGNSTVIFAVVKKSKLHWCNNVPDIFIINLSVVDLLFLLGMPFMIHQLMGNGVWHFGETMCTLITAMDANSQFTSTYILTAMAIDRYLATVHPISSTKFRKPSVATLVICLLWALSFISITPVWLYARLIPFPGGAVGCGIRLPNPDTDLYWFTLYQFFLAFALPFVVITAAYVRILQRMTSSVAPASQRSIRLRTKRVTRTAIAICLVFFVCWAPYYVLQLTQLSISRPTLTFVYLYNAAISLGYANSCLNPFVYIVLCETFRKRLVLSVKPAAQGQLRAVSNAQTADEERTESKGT
Outline: as §2

[8] = biological target: T8, Human neuropeptide Y (NPY-Y1) (Homo sapiens, UniProt P25929); assay: Radioligand binding, human neuropeptide Y NPY-Y1 membranes, FlashPlate, [125I]-PYY; conditions: compound at 10 μM, [125I]-PYY
T8 construct: purchased Perkin Elmer Biosignal
T8 sequence (P25929 1-384): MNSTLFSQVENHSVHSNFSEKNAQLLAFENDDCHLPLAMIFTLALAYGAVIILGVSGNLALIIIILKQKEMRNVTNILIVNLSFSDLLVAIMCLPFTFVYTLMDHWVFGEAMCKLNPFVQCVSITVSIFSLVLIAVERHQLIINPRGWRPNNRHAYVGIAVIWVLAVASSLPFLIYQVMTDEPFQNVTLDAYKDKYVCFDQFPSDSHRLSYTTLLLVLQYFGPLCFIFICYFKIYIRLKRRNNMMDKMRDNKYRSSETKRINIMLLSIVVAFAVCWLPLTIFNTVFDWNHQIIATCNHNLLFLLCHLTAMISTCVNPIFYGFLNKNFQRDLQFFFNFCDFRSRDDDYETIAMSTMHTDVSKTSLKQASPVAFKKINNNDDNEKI
Outline: as §2

[9] = biological target: T9, Human melanocortin (MC5) (Homo sapiens, UniProt P33032); assay: Radioligand binding, human melanocortin MC5 membranes, FlashPlate, [125I]-NDP-αMSH; conditions: compound at 10 μM, [125I]-NDP-αMSH
T9 construct: purchased Perkin Elmer Biosignal
T9 sequence (P33032 whole entry): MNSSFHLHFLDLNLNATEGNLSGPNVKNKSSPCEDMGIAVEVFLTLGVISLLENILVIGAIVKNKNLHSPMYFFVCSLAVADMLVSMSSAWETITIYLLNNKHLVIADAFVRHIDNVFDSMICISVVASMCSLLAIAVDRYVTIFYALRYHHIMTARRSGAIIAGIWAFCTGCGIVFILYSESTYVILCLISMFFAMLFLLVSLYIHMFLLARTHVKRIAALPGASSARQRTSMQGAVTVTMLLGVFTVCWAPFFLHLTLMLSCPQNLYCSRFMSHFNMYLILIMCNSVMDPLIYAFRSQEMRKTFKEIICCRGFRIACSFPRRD
Outline: as §2

[10] = biological target: T10, Human μ-opioid (MOP) (Homo sapiens, UniProt P35372); assay: Radioligand binding, human μ-opioid (MOP) membranes, FlashPlate, [3H]-Naloxone; conditions: compound at 10 μM, [3H]-Naloxone
T10 construct: purchased Perkin Elmer Biosignal
T10 sequence (P35372 whole entry): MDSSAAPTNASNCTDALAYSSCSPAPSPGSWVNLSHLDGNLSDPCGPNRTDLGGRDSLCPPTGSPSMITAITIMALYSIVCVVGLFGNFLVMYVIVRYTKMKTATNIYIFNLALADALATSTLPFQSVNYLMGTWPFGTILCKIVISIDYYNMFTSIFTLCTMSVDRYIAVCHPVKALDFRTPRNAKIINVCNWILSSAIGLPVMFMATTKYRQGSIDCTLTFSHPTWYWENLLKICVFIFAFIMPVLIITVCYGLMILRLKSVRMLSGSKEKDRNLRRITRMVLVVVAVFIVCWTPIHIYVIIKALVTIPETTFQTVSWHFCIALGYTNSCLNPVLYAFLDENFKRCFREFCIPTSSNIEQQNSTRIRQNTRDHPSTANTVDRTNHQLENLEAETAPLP
Outline: as §2

[11] = biological target: T11, Human δ-opioid (DOP) (Homo sapiens, UniProt P41143); assay: Radioligand binding, human δ-opioid (DOP) membranes, FlashPlate, [3H]-Bremazocine; conditions: compound at 10 μM, [3H]-Bremazocine
T11 construct: purchased Perkin Elmer Biosignal
T11 sequence (P41143 whole entry): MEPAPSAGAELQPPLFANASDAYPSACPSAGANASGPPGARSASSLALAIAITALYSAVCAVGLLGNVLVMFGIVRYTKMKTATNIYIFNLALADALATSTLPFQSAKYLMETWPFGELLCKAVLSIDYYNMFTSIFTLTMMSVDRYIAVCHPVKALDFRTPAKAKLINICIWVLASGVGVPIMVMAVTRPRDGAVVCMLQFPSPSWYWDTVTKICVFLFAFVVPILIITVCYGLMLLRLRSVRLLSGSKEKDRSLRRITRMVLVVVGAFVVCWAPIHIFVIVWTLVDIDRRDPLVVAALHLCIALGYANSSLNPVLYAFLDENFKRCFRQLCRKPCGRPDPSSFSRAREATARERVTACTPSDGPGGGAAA
Outline: as §2

T1 sequence (P41145 whole entry): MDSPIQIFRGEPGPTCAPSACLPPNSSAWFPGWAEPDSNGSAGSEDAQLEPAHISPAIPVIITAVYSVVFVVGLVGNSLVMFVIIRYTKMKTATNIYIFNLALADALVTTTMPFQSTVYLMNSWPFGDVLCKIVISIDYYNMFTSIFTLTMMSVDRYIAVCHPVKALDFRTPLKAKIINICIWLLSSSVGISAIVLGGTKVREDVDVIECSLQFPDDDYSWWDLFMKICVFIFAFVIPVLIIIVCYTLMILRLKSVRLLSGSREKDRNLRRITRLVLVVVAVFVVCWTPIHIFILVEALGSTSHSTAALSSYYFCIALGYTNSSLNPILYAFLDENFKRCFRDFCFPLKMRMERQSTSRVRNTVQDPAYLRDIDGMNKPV

Q: Which results are given for `NCCCC(=O)NC1C(OCc2ccc(Cl)cc2)OC(COCc2ccc(Cl)cc2)C(O)C1OCc1ccccc1` (single isomer, unassigned) [compound 505]?
A: A2: inhibition of radioligand binding, human κ-opioid (KOP) [1]: − (“−” indicates less than 50% inhibition at 10 μM); A3: inhibition of radioligand binding, human melanocortin (MC3) [2]: − (“−” indicates less than 50% inhibition at 10 μM); A4: inhibition of radioligand binding, human melanocortin (MC4) [3]: − (“−” indicates less than 50% inhibition at 10 μM); A8: inhibition of radioligand binding, human neurokinin (NK1) [4]: + (“+” indicates greater than 50% inhibition at 10 μM); A10: inhibition of radioligand binding, human opioid (ORL1) ([5]; 10 µM): − (“−” indicates less than 50% inhibition at 10 μM); A11: inhibition of radioligand binding, mouse urotensin (mUR2) [6]: − (“−” indicates less than 50% inhibition at 10 μM); A6: inhibition of radioligand binding, human melanin-concentrating hormone (MCH1) [7]: − (“−” indicates less than 50% inhibition at 10 μM); A9: inhibition of radioligand binding, human neuropeptide Y (NPY-Y1) [8]: − (“−” indicates less than 50% inhibition at 10 μM); A5: inhibition of radioligand binding, human melanocortin (MC5) [9]: + (“+” indicates greater than 50% inhibition at 10 μM); A7: inhibition of radioligand binding, human μ-opioid (MOP) ([10]; 10 µM): + (“+” indicates greater than 50% inhibition at 10 μM); A1: inhibition of radioligand binding, human δ-opioid (DOP) [11]: − (“−” indicates less than 50% inhibition at 10 μM)

Q: What does the source list for `N=C(N)NCCC(=O)N[C@H]1C(OCc2ccc(Cl)cc2)O[C@H](COCc2ccc(Cl)cc2)[C@@H](O)[C@@H]1OCc1ccc(Cl)cc1` (stereo partly drawn) [compound 526]?
A: A2: inhibition of radioligand binding, human κ-opioid (KOP) ([1]; 10 µM): − (“−” indicates less than 50% inhibition at 10 μM); A3: inhibition of radioligand binding, human melanocortin (MC3) ([2]; 10 µM): − (“−” indicates less than 50% inhibition at 10 μM); A4: inhibition of radioligand binding, human melanocortin (MC4) ([3]; 10 µM): − (“−” indicates less than 50% inhibition at 10 μM); A8: inhibition of radioligand binding, human neurokinin (NK1) [4]: + (“+” indicates greater than 50% inhibition at 10 μM); A10: inhibition of radioligand binding, human opioid (ORL1) [5]: − (“−” indicates less than 50% inhibition at 10 μM); A11: inhibition of radioligand binding, mouse urotensin (mUR2) [6]: − (“−” indicates less than 50% inhibition at 10 μM); A6: inhibition of radioligand binding, human melanin-concentrating hormone (MCH1) [7]: + (“+” indicates greater than 50% inhibition at 10 μM); A9: inhibition of radioligand binding, human neuropeptide Y (NPY-Y1) [8]: − (“−” indicates less than 50% inhibition at 10 μM); A5: inhibition of radioligand binding, human melanocortin (MC5) [9]: + (“+” indicates greater than 50% inhibition at 10 μM); A7: inhibition of radioligand binding, human μ-opioid (MOP) [10]: − (“−” indicates less than 50% inhibition at 10 μM); A1: inhibition of radioligand binding, human δ-opioid (DOP) [11]: − (“−” indicates less than 50% inhibition at 10 μM)

Q: How did the “A2: inhibition of radioligand binding” value ([1]; filtration) turn out when `CSC1O[C@H](COCc2ccc(Cl)cc2)[C@@H](O)[C@@H](OCc2ccc(Cl)cc2)[C@H]1NC(=O)CCCNC(=N)N` (stereo partly drawn) [compound 274] was run?
A: − (“−” indicates less than 50% inhibition at 10 μM)

Q: And the “A3: inhibition of radioligand binding” value ([2]; FlashPlate)?
A: − (“−” indicates less than 50% inhibition at 10 μM)

Q: What about the “A4: inhibition of radioligand binding” value ([3]; FlashPlate) of the same molecule?
A: − (“−” indicates less than 50% inhibition at 10 μM)

Q: And the “A8: inhibition of radioligand binding” value ([4]; filtration)?
A: + (“+” indicates greater than 50% inhibition at 10 μM)

Q: And the “A10: inhibition of radioligand binding” value ([5]; FlashPlate)?
A: − (“−” indicates less than 50% inhibition at 10 μM)

Q: What about the “A11: inhibition of radioligand binding” value ([6]; FlashPlate) of the same molecule?
A: − (“−” indicates less than 50% inhibition at 10 μM)

Q: What about the “A6: inhibition of radioligand binding” value ([7]; [125I]-S36057, FlashPlate) of the same molecule?
A: − (“−” indicates less than 50% inhibition at 10 μM)

Q: And the “A9: inhibition of radioligand binding” value ([8]; FlashPlate)?
A: − (“−” indicates less than 50% inhibition at 10 μM)

Q: What about the “A5: inhibition of radioligand binding” value ([9]; FlashPlate) of the same molecule?
A: − (“−” indicates less than 50% inhibition at 10 μM)

Q: What about the “A7: inhibition of radioligand binding” value ([10]; FlashPlate) of the same molecule?
A: − (“−” indicates less than 50% inhibition at 10 μM)

Q: What about the “A1: inhibition of radioligand binding” value ([11]; FlashPlate) of the same molecule?
A: − (“−” indicates less than 50% inhibition at 10 μM)
